Laboratory results reported in ChEMBL document CHEMBL4311985, “Novel virosecurinine bivalent mimetics as potent reversal agents against P-glycoprotein-mediated multidrug resistance” (Eur J Med Chem, 2019).

Tests used:
Type in all cases: cell-based
[1] = biological target: T1, ATP-dependent translocase ABCB1 (Homo sapiens, UniProt P08183); assay: Reversal of P-gp mediated multidrug resistance in human MCF7/ADM cells assessed as potentiation of doxorubicin-induced cell growth inhibition at 10 uM measured after 48 hrs by MTT assay
T1 sequence (P08183 whole entry): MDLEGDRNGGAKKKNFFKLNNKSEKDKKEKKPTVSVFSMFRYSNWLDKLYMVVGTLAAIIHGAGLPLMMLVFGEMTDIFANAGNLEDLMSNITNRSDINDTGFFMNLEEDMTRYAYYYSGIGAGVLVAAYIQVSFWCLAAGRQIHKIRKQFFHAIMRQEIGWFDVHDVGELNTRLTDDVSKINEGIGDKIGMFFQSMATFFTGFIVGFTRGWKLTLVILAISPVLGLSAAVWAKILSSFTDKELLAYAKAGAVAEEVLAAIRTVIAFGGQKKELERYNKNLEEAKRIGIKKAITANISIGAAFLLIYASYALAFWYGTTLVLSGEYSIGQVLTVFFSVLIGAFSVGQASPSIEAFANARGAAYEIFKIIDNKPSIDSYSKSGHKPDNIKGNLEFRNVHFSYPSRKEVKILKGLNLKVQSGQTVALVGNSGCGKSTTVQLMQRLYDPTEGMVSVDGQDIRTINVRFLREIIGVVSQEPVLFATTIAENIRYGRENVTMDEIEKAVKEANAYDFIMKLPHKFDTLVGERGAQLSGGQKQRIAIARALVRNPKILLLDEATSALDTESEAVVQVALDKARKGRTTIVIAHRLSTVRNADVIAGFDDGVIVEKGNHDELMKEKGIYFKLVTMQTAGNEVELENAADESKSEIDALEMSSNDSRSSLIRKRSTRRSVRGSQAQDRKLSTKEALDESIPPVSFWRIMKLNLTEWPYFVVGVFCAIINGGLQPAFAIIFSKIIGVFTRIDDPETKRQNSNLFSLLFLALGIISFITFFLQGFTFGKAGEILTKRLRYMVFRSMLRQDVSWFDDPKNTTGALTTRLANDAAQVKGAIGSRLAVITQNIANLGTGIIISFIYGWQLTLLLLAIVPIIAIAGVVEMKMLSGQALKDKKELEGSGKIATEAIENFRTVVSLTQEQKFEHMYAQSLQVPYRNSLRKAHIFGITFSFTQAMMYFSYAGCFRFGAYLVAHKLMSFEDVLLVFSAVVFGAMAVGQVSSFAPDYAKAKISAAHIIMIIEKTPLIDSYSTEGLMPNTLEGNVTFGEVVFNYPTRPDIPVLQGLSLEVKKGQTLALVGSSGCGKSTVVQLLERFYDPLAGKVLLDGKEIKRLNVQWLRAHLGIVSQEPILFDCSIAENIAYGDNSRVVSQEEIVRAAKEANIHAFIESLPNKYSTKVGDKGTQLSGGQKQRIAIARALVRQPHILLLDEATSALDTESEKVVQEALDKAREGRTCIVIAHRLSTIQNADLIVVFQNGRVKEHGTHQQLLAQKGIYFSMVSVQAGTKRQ

[2] = biological target: T1, ATP-dependent translocase ABCB1; assay: Reversal of P-gp mediated multidrug resistance in human HepG2/Dox cells assessed as potentiation of doxorubicin-induced cell growth inhibition at 10 uM measured after 48 hrs by MTT assay (reference value: 24%)
[3] = biological target: T1, ATP-dependent translocase ABCB1; assay: Reversal of P-gp mediated multidrug resistance in human MCF7/ADM cells assessed as potentiation of doxorubicin-induced cell growth inhibition at 10 uM measured after 48 hrs by MTT assay (reference value: 5%)
[4] = Cytotoxicity against human MCF7/ADM cells assessed as reduction in cell viability at 10 uM measured after 48 hrs by MTT assay
[5] = Cytotoxicity against human HepG2/DOX cells assessed as reduction in cell viability at 10 uM measured after 48 hrs by MTT assay
[6] = biological target: T1, ATP-dependent translocase ABCB1; assay: Reversal of P-gp mediated multidrug resistance in human HepG2/Dox cells assessed as potentiation of doxorubicin-induced cell growth inhibition at 10 uM measured after 48 hrs by MTT assay

CCCN(C(=O)CCCCC(=O)N(CCC)[C@H]1CC2=CC(=O)O[C@@]23C[C@@H]1N1CCCC[C@@H]13)[C@H]1CC2=CC(=O)O[C@@]23C[C@@H]1N1CCCC[C@@H]13
inhibition (INH) [1]: Not Active
inhibition at 10 µM [2]: 79%

COc1ccc(CCN(C)CCCC(C#N)(c2ccc(OC)c(OC)c2)C(C)C)cc1OC (centres undefined) [VERAPAMIL]
inhibition at 10 µM [3]: 70%
inhibition at 10 µM [2]: 84%

CCCN(C(=O)CCCCCC(=O)N(CCC)[C@H]1CC2=CC(=O)O[C@@]23C[C@@H]1N1CCCC[C@@H]13)[C@H]1CC2=CC(=O)O[C@@]23C[C@@H]1N1CCCC[C@@H]13
inhibition at 10 µM [3]: 84%
Activity [4]: Toxic
inhibition at 10 µM [2]: 78%
Activity [5]: Toxic

O=C1C=C2C=C[C@@H]3C[C@@]2(O1)[C@H]1CCCCN31 [SECURININE]
inhibition at 10 µM [3]: 31%
inhibition at 10 µM [2]: 36%

CCCN(C(=O)CCCCC(=O)N(CCC)[C@H]1CC2=CC(=O)O[C@]23C[C@H]1N1CCCC[C@H]13)[C@H]1CC2=CC(=O)O[C@]23C[C@H]1N1CCCC[C@H]13
inhibition (INH) [1]: Active
Activity [4]: Toxic
inhibition (INH) [6]: Active
Activity [5]: Toxic
